Laboratory results as given in PubChem BioAssay (NCI).
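Five concentrations, 48 hours, 96-well plates. TGI denotes the concentration required for complete inhibition of growth.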

How the values were obtained:
Experiment in all cases: NCI tumour cell line growth inhibition, 48 h
[1] = tested on: MDA-N
[2] = tested on: COLO 205 colon
[3] = tested on: SF-268 CNS
[4] = tested on: HOP-92 NSCLC
[5] = tested on: LOX IMVI melanoma
[6] = tested on: SW-620 colon
[7] = tested on: SN12C renal
[8] = tested on: CAKI-1 renal
[9] = tested on: SR leukemia
[10] = tested on: NCI-H226 lung
[11] = tested on: RXF 393 renal
[12] = tested on: IGROV1 ovarian
[13] = tested on: M14 melanoma
[14] = tested on: SNB-19 CNS
[15] = tested on: ACHN renal
[16] = tested on: SNB-75 CNS
[17] = tested on: NCI-H522 lung
[18] = tested on: SK-MEL-28 melanoma
[19] = tested on: SK-MEL-2 melanoma
[20] = tested on: SK-MEL-5 melanoma
[21] = tested on: EKVX NSCLC
[22] = tested on: RPMI-8226 leukemia
[23] = tested on: OVCAR-5 ovarian
[24] = tested on: CCRF-CEM leukemia
[25] = tested on: HCT-15 colon
[26] = tested on: HL-60(TB) leukemia
[27] = tested on: HT29 colon
[28] = tested on: NCI-H23 lung
[29] = tested on: NCI-H460 lung
[30] = tested on: TK-10 renal
[31] = tested on: OVCAR-4 ovarian
[32] = tested on: U251 CNS
[33] = tested on: MCF7 breast
[34] = tested on: MDA-MB-435
[35] = tested on: UACC-62 melanoma
[36] = tested on: K-562 leukemia
[37] = tested on: KM12 colon
[38] = tested on: UACC-257 melanoma
[39] = tested on: HCT-116 colon
[40] = tested on: PC-3 prostate
[41] = tested on: HS 578T breast
[42] = tested on: A498 renal
[43] = tested on: MALME-3M melanoma
[44] = tested on: 786-0 renal
[45] = tested on: A549 NSCLC
[46] = tested on: SF-539 CNS
[47] = tested on: UO-31 renal
[48] = tested on: OVCAR-8 ovarian
[49] = tested on: SF-295 CNS
[50] = tested on: DU-145 prostate
[51] = tested on: MOLT-4 leukemia
[52] = tested on: NCI/ADR-RES ovarian
[53] = tested on: MDA-MB-231 breast
[54] = tested on: HCC-2998 colon
[55] = tested on: HOP-62 NSCLC
[56] = tested on: SK-OV-3 ovarian
[57] = tested on: T-47D breast

Measured: TGI

CC(=O)OC1CC[C@@]2(C)C(=CC[C@@H]3[C@@H]2CC[C@]2(C)C(OC(C)=O)[C@H](n4ccnc4)C[C@@H]32)C1 (some centres not stated)
30.6 µM: [25]
30.4 µM: [37]
34.4 µM: [2]
23.7 µM: [27]
86.3 µM: [36]
28.3 µM: [43]
33.2 µM: [33]
31.6 µM: [34]
29.8 µM: [46]
36.7 µM: [9]
31.2 µM: [13] | [39]
44.2 µM: [48]
30.3 µM: [20] | [35] | [51]
34.2 µM: [19]
31.1 µM: [38]
39.5 µM: [40]
40.9 µM: [17]
31.5 µM: [18]
33.4 µM: [29]
55.2 µM: [22]
35.6 µM: [26]
37.1 µM: [24]
46.6 µM: [1] | [31]
37.7 µM: [5]
not listed: [54] | [55] | [56] | [57]
> 100 µM: all other assays above

CSc1nc(C)c(CCOC(C)=O)c(N=P(c2ccccc2)(c2ccccc2)c2ccccc2)n1
6.43 µM: [51]
7.83 µM: [9]
9.37 µM: [40]
not listed: [2] | [4] | [10] | [14] | [15] | [17] | [19] | [23] | [29] | [31] | [32] | [34] | [39] | [41] | [42] | [46] | [47] | [52]
> 10 µM: all other assays above
